In patent EP2711369A1, “Liposomes containing tetraether lipid derivatives” (Bernina Plus GmbH, priority 2012, dated 2014):

Tested on: Brattleboro rats
Assay: In vivo testing of liposomes: urine excretion after oral DDAVP
Settings: oral by gavage, DDAVP 10 µg/kg body weight
Protocol: Liposomes composed of STEL-PC and cholesterol in a ratio of 1 : 2.5 with DDVAP encapsulated as active agent were studied in the Brattleboro model.
Treatment with exogenous vasopression restores normal urinary function and exerts a temporal antidiuretic effect.
Brattleboro rats were hold singly in metabolic cages with free access to tap water. DDAVP was administered orally by gavage at a dose of 10 µg/kg body weight either as free compound or in various formulations. Urine excretion was measured over 24 h in 1 h intervals using a fraction collector.

For “1-desamino-8-D-arginine vasopressin [free DDAVP]”, the “inhibition of urine excretion (duration)” value was “approximately 2 hours”.
